Paper PMC5597302 (Angewandte Chemie (International ed. in English), 2016)

Columns and labels:
[1] = system: B16 melanoma cells expressing human uPAR; test: B16-uPAR mouse allograft model; conditions: Dox 1 mpk
uPAR = uPAR (Homo sapiens, UniProt Q03405); conditions: read-out: affinity for uPAR; reported value; ref 8a; cited from earlier work
Sequence of uPAR (Q03405 23-335): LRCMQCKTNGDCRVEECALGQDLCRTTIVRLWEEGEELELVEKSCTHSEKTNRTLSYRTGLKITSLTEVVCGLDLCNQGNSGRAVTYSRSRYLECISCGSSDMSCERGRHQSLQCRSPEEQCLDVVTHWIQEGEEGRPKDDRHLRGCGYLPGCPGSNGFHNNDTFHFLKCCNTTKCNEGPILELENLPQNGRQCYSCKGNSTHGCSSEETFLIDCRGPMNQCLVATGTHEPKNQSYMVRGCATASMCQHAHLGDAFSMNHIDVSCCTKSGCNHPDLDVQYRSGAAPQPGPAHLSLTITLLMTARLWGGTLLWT

Compound	level of TGI relative to ARM-U2 ([1]; daily IP, combination ARM-U2 20 mpk and Dox 1 mpk)	body weight loss ([1]; throughout the experiments, ARM-U2 20 or 100 mpk)	Kd (uPAR)
COc1cccc2c1C(=O)c1c(O)c3c(c(O)c1C2=O)C[C@@](O)(C(=O)CO)C[C@@H]3O[C@H]1C[C@H](N)[C@H](O)[C@H](C)O1 [Dox, doxorubicin]	comparable	significant levels of weight loss	–
O=C(O)c1cccc(Nc2cc(N3CCCCCC3)c3noc4c3c2C(=O)c2ccccc2-4)c1 [IPR-803]	–	–	0.2 µM
